In the assay the target is JAK1 (Homo sapiens (Human), UniProt P23458). Kind of assay: Analysis of JAK1 activity inhibition ability (ADP-Glo Kinase Assay). To be noted: JAK1 enzyme, ADP-Glo luminescence, ATP 250 uM, IRS-itide substrate, 30° C. 40 minutes; read-out: IC50. Type of assay: biochemical. The method, boiled down:
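JAK1 enzyme, IRS-itide substrate (40 ng/mL) and 250 uM ATP, both as prepared in kinase buffer (Tris-HCl pH 7.5, MgCl2, BSA, DTT), reacted with compound 40 min at 30 °C. ADP formed was detected by ADP-Glo luminescence; IC50 is the concentration giving 50% inhibition versus control.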

The IC50 is the midpoint of a concentration-inhibition curve.

JAK1, sequence (P23458 whole entry): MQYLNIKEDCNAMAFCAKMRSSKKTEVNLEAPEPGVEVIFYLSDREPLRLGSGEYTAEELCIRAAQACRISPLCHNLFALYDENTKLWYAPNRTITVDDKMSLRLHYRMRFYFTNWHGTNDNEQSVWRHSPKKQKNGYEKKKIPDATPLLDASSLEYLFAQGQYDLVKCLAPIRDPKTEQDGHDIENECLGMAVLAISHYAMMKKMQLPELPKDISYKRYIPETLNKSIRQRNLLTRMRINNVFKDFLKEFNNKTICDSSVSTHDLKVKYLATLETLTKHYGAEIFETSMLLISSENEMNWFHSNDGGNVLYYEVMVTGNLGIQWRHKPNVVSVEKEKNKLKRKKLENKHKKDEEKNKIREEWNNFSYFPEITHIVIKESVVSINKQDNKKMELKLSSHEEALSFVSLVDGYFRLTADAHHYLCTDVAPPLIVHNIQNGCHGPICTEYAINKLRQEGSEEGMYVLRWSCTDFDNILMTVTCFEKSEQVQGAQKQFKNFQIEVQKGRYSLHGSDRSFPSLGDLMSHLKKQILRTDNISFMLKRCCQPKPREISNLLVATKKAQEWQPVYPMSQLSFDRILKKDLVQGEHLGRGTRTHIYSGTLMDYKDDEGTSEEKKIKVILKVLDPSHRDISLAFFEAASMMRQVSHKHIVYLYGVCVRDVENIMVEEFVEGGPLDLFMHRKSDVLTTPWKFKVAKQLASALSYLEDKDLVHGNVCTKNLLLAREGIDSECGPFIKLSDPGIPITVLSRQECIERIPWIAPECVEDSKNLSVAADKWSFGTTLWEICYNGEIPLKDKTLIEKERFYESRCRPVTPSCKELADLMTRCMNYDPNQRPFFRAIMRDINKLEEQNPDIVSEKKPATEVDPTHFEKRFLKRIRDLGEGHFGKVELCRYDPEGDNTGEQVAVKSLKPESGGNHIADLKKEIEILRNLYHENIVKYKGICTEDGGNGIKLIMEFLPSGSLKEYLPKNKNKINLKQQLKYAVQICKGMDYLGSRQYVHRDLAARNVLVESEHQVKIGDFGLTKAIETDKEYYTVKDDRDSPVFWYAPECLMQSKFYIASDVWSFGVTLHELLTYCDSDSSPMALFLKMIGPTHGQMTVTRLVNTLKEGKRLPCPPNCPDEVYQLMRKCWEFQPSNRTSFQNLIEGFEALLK

As for `N#CC1(CS(=O)(=O)Nc2ccc(-c3cc(NC(=O)C4CC4)nc4[nH]ccc34)cc2)CC1` [Example 88, N-(4-(4-(((1-cyanocyclopropyl)methyl)sulfonamido)phenyl)-1H-pyrrolo[2,3-b]pyridin-6-yl)cyclopropanecarboxamide], the IC50 is less than 20 nM.
As for `N#CCC1(CS(=O)(=O)Nc2ccc(-c3cc(NC(=O)C4CC4)nc4[nH]ccc34)cc2)CC1` [Example 89, N-(4-(4-(((1-(cyanomethyl)cyclopropyl)methyl)sulfonamido)phenyl)-1H-pyrrolo[2,3-b]pyridin-6-yl)cyclopropanecarboxamide], the figure is less than 20 nM.
As for `Cc1cc(NS(=O)(=O)C2CC2)ccc1-c1cc(NC(=O)C2CC2)nc2[nH]ccc12` [Example 90, N-(4-(4-(cyclopropanesulfonamido)-2-methylphenyl)-1H-pyrrolo[2,3-b]pyridin-6-yl)cyclopropanecarboxamide], the figure is 20 to 200 nM; as for `Cc1cc(NS(=O)(=O)C2CCC2)ccc1-c1cc(NC(=O)C2CC2)nc2[nH]ccc12` [Example 91, N-(4-(4-(cyclobutanesulfonamido)-2-methylphenyl)-1H-pyrrolo[2,3-b]pyridin-6-yl)cyclopropanecarboxamide], 20 to 200 nM.
In the case of `Cc1cc(NS(=O)(=O)CC2CC2)ccc1-c1cc(NC(=O)C2CC2)nc2[nH]ccc12` [Example 92, N-(4-(4-((cyclopropylmethyl)sulfonamido)-2-methylphenyl)-1H-pyrrolo[2,3-b]pyridin-6-yl)cyclopropanecarboxamide] it was 20 to 200 nM; in that of `CCS(=O)(=O)Nc1ccc(-c2cc(NC(=O)C3CC3)nc3[nH]cc(C)c23)cc1` [Example 93, N-(4-(4-(ethylsulfonamido)phenyl)-3-methyl-1H-pyrrolo[2,3-b]pyridin-6-yl)cyclopropanecarboxamide], 20 to 200 nM; in that of `CCCS(=O)(=O)Nc1ccc(-c2cc(NC(=O)C3CC3)nc3[nH]cc(C)c23)cc1` [Example 94, N-(3-methyl-4-(4-(propylsulfonamido)phenyl)-1H-pyrrolo[2,3-b]pyridin-6-yl)cyclopropanecarboxamide], 20 to 200 nM.
With `CCCS(=O)(=O)Nc1ccc(-c2cc(NC(=O)C3CC3)nc3[nH]ccc23)c(C)c1` [Example 95, N-(4-(2-methyl-4-(propylsulfonamido)phenyl)-1H-pyrrolo[2,3-b]pyridin-6-yl)cyclopropanecarboxamide], the IC50 is 20 to 200 nM.
As to `Cc1cc(NS(=O)(=O)CCCC#N)ccc1-c1cc(NC(=O)C2CC2)nc2[nH]ccc12` [Example 96, N-(4-(4-((3-cyanopropyl)sulfonamido)-2-methylphenyl)-1H-pyrrolo[2,3-b]pyridin-6-yl)cyclopropanecarboxamide], the half-maximal inhibitory concentration (IC50) was 20 to 200 nM.
As for `CCS(=O)(=O)Nc1ccc(-c2cc(NC(=O)C3CC3)[n+]([O-])c3[nH]ccc23)cc1F` [Example 97, 6-(cyclopropanecarboxamido)-4-(4-(ethylsulfonamido)-3-fluorophenyl)-1H-pyrrolo[2,3-b]pyridine 7-oxide], the 50% inhibitory concentration (IC50) lay in the range of 20 to 200 nM.
As to `CCS(=O)(=O)Nc1ccc(-c2cc(NC(=O)C3CC3)nc3[nH]ccc23)cc1C(F)(F)F` [Example 98, N-(4-(4-(ethylsulfonamido)-3-(trifluoromethyl)phenyl)-1H-pyrrolo[2,3-b]pyridin-6-yl)cyclopropanecarboxamide], the IC50 is 20 to 200 nM.
Turning to `CCc1cc(NS(=O)(=O)CC)ccc1-c1cc(NC(=O)C2CC2)nc2[nH]ccc12` [Example 99, N-(4-(2-ethyl-4-(ethylsulfonamido)phenyl)-1H-pyrrolo[2,3-b]pyridin-6-yl)cyclopropanecarboxamide], the IC50 was less than 20 nM.
Take `CCCS(=O)(=O)Nc1ccc(-c2cc(NC(=O)C3CC3)nc3[nH]ccc23)c(C)c1F` [Example 100, N-(4-(3-fluoro-2-methyl-4-(propylsulfonamido)phenyl)-1H-pyrrolo[2,3-b]pyridin-6-yl)cyclopropanecarboxamide]: the IC50 was in the range of 20 to 200 nM.
Take `CCS(=O)(=O)Nc1ccc(-c2cc(NC(=O)C3CC3)nc3[nH]ccc23)c(C)c1F` [Example 101, N-(4-(4-(ethylsulfonamido)-3-fluoro-2-methylphenyl)-1H-pyrrolo[2,3-b]pyridin-6-yl)cyclopropanecarboxamide]: the half-maximal inhibitory concentration (IC50) is 20 to 200 nM.
In the case of `Cc1cc(NS(=O)(=O)CC2(C#N)CC2)ccc1-c1cc(NC(=O)C2CC2)nc2[nH]ccc12` [Example 102, N-(4-(4-(((1-cyanocyclopropyl)methyl)sulfonamido)-2-methylphenyl)-1H-pyrrolo[2,3-b]pyridin-6-yl)cyclopropanecarboxamide] it was less than 20 nM; in that of `Cc1cc(NS(=O)(=O)CC2(CC#N)CC2)ccc1-c1cc(NC(=O)C2CC2)nc2[nH]ccc12` [Example 103, N-(4-(4-(((1-(cyanomethyl)cyclopropyl)methyl)sulfonamido)-2-methylphenyl)-1H-pyrrolo[2,3-b]pyridin-6-yl)cyclopropanecarboxamide], less than 20 nM; in that of `N#CCCCS(=O)(=O)Nc1cc(F)c(-c2cc(NC(=O)C3CC3)nc3[nH]ccc23)cc1F` [Example 104, N-(4-(4-((3-cyanopropyl)sulfonamido)-2,5-difluorophenyl)-1H-pyrrolo[2,3-b]pyridin-6-yl)cyclopropanecarboxamide], 20 to 200 nM.
As for `N#CC1(CS(=O)(=O)Nc2cc(F)c(-c3cc(NC(=O)C4CC4)nc4[nH]ccc34)cc2F)CC1` [Example 105, N-(4-(4-(((1-cyanocyclopropyl)methyl)sulfonamido)-2,5-difluorophenyl)-1H-pyrrolo[2,3-b]pyridin-6-yl)cyclopropanecarboxamide], the figure is less than 20 nM; as for `N#CCC1(CS(=O)(=O)Nc2cc(F)c(-c3cc(NC(=O)C4CC4)nc4[nH]ccc34)cc2F)CC1` [Example 106, N-(4-(4-(((1-(cyanomethyl)cyclopropyl)methyl)sulfonamido)-2,5-difluorophenyl)-1H-pyrrolo[2,3-b]pyridin-6-yl)cyclopropanecarboxamide], less than 20 nM.
For `N#CC1(CS(=O)(=O)Nc2c(F)cc(-c3cc(NC(=O)C4CC4)nc4[nH]ccc34)cc2F)CC1` [Example 107, N-(4-(4-(((1-cyanocyclopropyl)methyl)sulfonamido)-3,5-difluorophenyl)-1H-pyrrolo[2,3-b]pyridin-6-yl)cyclopropanecarboxamide], the IC50 lay in the range of 20 to 200 nM.
As for `N#CCC1(CS(=O)(=O)Nc2c(F)cc(-c3cc(NC(=O)C4CC4)nc4[nH]ccc34)cc2F)CC1` [Example 108, N-(4-(4-(((1-(cyanomethyl)cyclopropyl)methyl)sulfonamido)-3,5-difluorophenyl)-1H-pyrrolo[2,3-b]pyridin-6-yl)cyclopropanecarboxamide], the figure is less than 20 nM; as for `CCc1cc(NS(=O)(=O)CC2(C#N)CC2)ccc1-c1cc(NC(=O)C2CC2)nc2[nH]ccc12` [Example 109, N-(4-(4-(((1-cyanocyclopropyl)methyl)sulfonamido)-2-ethylphenyl)-1H-pyrrolo[2,3-b]pyridin-6-yl)cyclopropanecarboxamide], less than 20 nM.
In the case of `CCc1cc(NS(=O)(=O)CC2(CC#N)CC2)ccc1-c1cc(NC(=O)C2CC2)nc2[nH]ccc12` [Example 110, N-(4-(4-(((1-(cyanomethyl)cyclopropyl)methyl)sulfonamido)-2-ethylphenyl)-1H-pyrrolo[2,3-b]pyridin-6-yl)cyclopropanecarboxamide] it was less than 20 nM.
